Our source for the EC50 values is patent publication US9994509B2, “Inhibitors of viral replication, their process of preparation and their therapeutical uses” (HIVIH, priority 2013, dated 2018).

Broadly, the EC50 is the concentration giving half of the maximal effect.

The first assay relates to NL4-3 strain of HIV-1. The assay can be described thus: HIV-1 replication assay: cyto-protection of MT4 cells infected with NL4-3 virus, CellTiter-Glo viability readout. The class given is cell-based. Conditions: Human immunodeficiency virus 1, NL43, 120 h; concentration leading to 50% of cyto-protection; MT4 cells infected with NL4-3 virus; 5 days incubation; CellTiter-Glo; read-out: EC50. The procedure:
The antiviral activity, particularly against HIV, of compounds according to the invention is evaluated by the protocol described below.
Preparation of Virus stock of the NL4-3 strain of HIV-1 (Adachi et al, J Virol, 1986, 59(2):284-91).
The virus was prepared as described in Lopez et al (Lopez et al, Proc Natl Acad Sci USA., 2006, 103(40):14947-52, by transfecting 2×10^6 293 T cells (CRL-1573, ATCC) with following modifications: 6 μg of NL4-3 proviral DNA molecular clone were mixed with X-tremeGENE 9 DNA transfection reagent from Roche, and used according to manufacturer's instructions. Twenty four hours later, cells were washed and fresh medium added. Forty eight hours after transfection, cell supernatants were harvested, filtered through 0.45-μm-pore-size filters, quantified for HIV-1 p24 antigen by using an Innotest HIV antigen mAb assay (Ingen) according to manufacturer's instructions, and used in infection experiments.
Serial dilutions of compounds to be tested were prepared in complete RPMI medium from 10 mM DMSO stock solutions, and distributed in a volume of 20 μl in 96 well tissue-culture treated plates (Costar 3917), in order to get 0.5% DMSO final concentration in each well, after the addition of infected cells. Control wells contained also 0.5% DMSO final concentration but no compound.
MT4 cells (from the NIH AIDS Research and Reference Reagent Program) in RPMI complete medium were counted (10×10^6 cells per well in Falcon 353047 Multiwell™ 24 well) and infected for 2 hours at 37°, at a multiplicity of infection (moi) of 0.0001-0.00001. Cells were then centrifuged for 3 min at 3000 rpm, and washed two times in 1 ml PBS to remove viruses that have not entered the cells. Infected cells were resuspended in complete RPMI at 1.25×10^6 cells/ml, and 80 μl of infected cells were distributed in each well containing compounds to be tested or control wells. The plates were then incubated at 37° C. for 5 days.
Assay used to measure the inhibition of HIV replication by the compounds (according to Gregg S. Jones et al., Antimicrobial Agents and Chemotherapy, 2009, 53 (3): 1194-1203).
After 5 days of incubation, microplates were equilibrated to room temperature for 30 min and then 50 μl of CellTiter-Glo reagent (Promega Biosciences, Inc., Madison Wis., USA) were added to each well. Cell lysis was carried out at room temperature during 10 min and luminescence was read on a Fluoroskan (Thermo Scientific).
The EC50, or effective concentration 50, is the concentration of compound leading to 50% of cyto-protection in a CellTiter-Glo® viability assay based on MT4 cells infected with NL4-3 virus (table 1).
Consider `Cc1ccc(C2CC2)c(-c2ccc3c(c2C)CCCO3)c1[C@H](OC(C)(C)C)C(=O)O` (atropisomer, axis not shown) [Example 38, (S)-tert-butoxy-[3-cyclopropyl-6-methyl-2-(5-methyl-chroman-6-yl)-phenyl]-acetic acid], for which the EC50 is 3 nM.

For the compound `Cc1ccc(C2CC2)c(-c2ccc3c(c2C)CCCO3)c1[C@H](OC1CC1)C(=O)O` (atropisomer, axis not shown) [Example 40, (S)-cyclopropoxy-[3-cyclopropyl-6-methyl-2-(5-methyl-chroman-6-yl)-phenyl]-acetic acid], the EC50 stood at 14 nM.

In the case of `Cc1ccc(C2CC2)c(-c2cc(F)c3c(c2C)CCCO3)c1[C@H](OC(C)(C)C)C(=O)O` (atropisomer, axis not shown) [Example 41, (S)-tert-butoxy-[3-cyclopropyl-2-(8-fluoro-5-methyl-chroman-6-yl)-6-methyl-phenyl]-acetic acid], the EC50 is 6 nM.

Take `Cc1ccc(C2CC2)c(-c2cc(F)c3c(c2C)CCCO3)c1[C@H](OC1CC1)C(=O)O` (atropisomer, axis not shown) [Example 44, (S)-cyclopropoxy-[3-cyclopropyl-2-(8-fluoro-5-methyl-chroman-6-yl)-6-methyl-phenyl]-acetic acid]: the EC50 turned out to be 17 nM.

As for `Cc1ccc([C@@H]2C[C@@H]2C)c(-c2ccc3c(c2)CCCO3)c1C(OC(C)(C)C)C(=O)O` (relative stereo) [Example 26, tert-Butoxy-[2-chroman-6-yl-6-methyl-3-(cis-2-methyl-cyclopropyl)-phenyl]-acetic acid], the EC50 was 300 nM.

In the case of `Cc1ccc(C2CC2)c(-c2ccc3c(c2)CCCO3)c1C(OC(C)(C)C)C(=O)O` (stereo not shown) [Example 1, 2-(tert-butoxy)-2-[3-cyclopropyl-2-(3,4-dihydro-2H-1-benzopyran-6-yl)-6-methylphenyl]acetic acid], the EC50 worked out at 17 nM.

For the compound `CC(C)(C)OC(C(=O)O)c1c(C(F)(F)F)ccc(C2CC2)c1-c1ccc2c(c1)CCCO2` (stereo not shown) [Example 2, 2-(tert-butoxy)-2-[3-cyclopropyl-2-(3,4-dihydro-2H-1-benzopyran-6-yl)-6-(trifluoromethyl)phenyl]acetic acid], the EC50 is 90 nM.

Regarding `C=C(C)c1ccc(C)c(C(OC(C)(C)C)C(=O)O)c1-c1ccc2c(c1)CCCO2` (stereo not shown) [Example 4, 2-(tert-butoxy)-2-[2-(3,4-dihydro-2H-1-benzopyran-6-yl)-3-isopropenyl-6-methylphenyl]acetic acid], the EC50 came to 34 nM.

In the case of `Cc1ccc(C(C)C)c(-c2ccc3c(c2)CCCO3)c1C(OC(C)(C)C)C(=O)O` (stereo not shown) [Example 5, 2-(tert-butoxy)-2-[2-(3,4-dihydro-2H-1-benzopyran-6-yl)-3-isopropyl-6-methylphenyl]acetic acid], the EC50 came out at 23 nM.

For the compound `CC(C)(C)OC(C(=O)O)c1c(C(F)(F)F)ccc(C2CCCC2)c1-c1ccc2c(c1)CCCO2` (stereo not shown) [Example 6, 2-(tert-butoxy)-2-[3-(cyclopentyl)-2-(3,4-dihydro-2H-1-benzopyran-6-yl)-6-(trifluoromethyl)phenyl]acetic acid], the EC50 amounted to 270 nM.

As to `COc1c(-c2nc3ccccc3[nH]2)cc(C(F)(F)F)c(C(OC(C)(C)C)C(=O)O)c1-c1ccc2c(c1)CCCO2` (stereo not shown) [Example 7, 2-[4-(1H-1,3-benzodiazol-2-yl)-2-(3,4-dihydro-2H-1-benzopyran-6-yl)-3-methoxy-6-(trifluoromethyl)phenyl]-2-(tert-butoxy)acetic acid], the EC50 amounted to 62 nM.

Take `C=C(C)c1ccc(C(F)(F)F)c(C(OC(C)(C)C)C(=O)O)c1-c1ccc2c(c1)CCCO2` (stereo not shown) [Example 8, 2-(tert-butoxy)-2-[2-(3,4-dihydro-2H-1-benzopyran-6-yl)-3-(prop-1-en-2-yl)-6-(trifluoromethyl)phenyl]acetic acid]: the EC50 turned out to be 190 nM.

On to `C=Cc1ccc(C(F)(F)F)c(C(OC(C)(C)C)C(=O)O)c1-c1ccc2c(c1)CCCO2` (stereo not shown) [Example 9, 2-(tert-butoxy)-2-[2-(3,4-dihydro-2H-1-benzopyran-6-yl)-3-ethenyl-6-(trifluoromethyl)phenyl]acetic acid], for which the EC50 was 500 nM.

For the compound `CC(C)c1ccc(C(F)(F)F)c(C(OC(C)(C)C)C(=O)O)c1-c1ccc2c(c1)CCCO2` (stereo not shown) [Example 10, 2-(tert-butoxy)-2-[2-(3,4-dihydro-2H-1-benzopyran-6-yl)-3-(propan-2-yl)-6-(trifluoromethyl)phenyl]acetic acid], the EC50 stood at 84 nM.

Turning to `CCc1ccc(C(F)(F)F)c(C(OC(C)(C)C)C(=O)O)c1-c1ccc2c(c1)CCCO2` (stereo not shown) [Example 11, 2-(tert-butoxy)-2-[2-(3,4-dihydro-2H-1-benzopyran-6-yl)-3-ethyl-6-(trifluoromethyl)phenyl]acetic acid], the EC50 was determined as 360 nM.

In the case of `COc1ccc(-c2c(C3CC3)ccc(C)c2C(OC(C)(C)C)C(=O)O)cc1` (stereo not shown) [Example 12, 2-(tert-butoxy)-2-(6-cyclopropyl-4′-methoxy-3-methyl-biphenyl-2-yl]acetic acid], the EC50 was 78 nM.

For `Cc1ccc(C2CC2)c(-c2ccc3c(c2)CCCO3)c1[C@H](OC(C)(C)C)C(=O)O` [Example 13, (S)-2-(tert-butoxy)-2-[3-cyclopropyl-2-(3,4-dihydro-2H-1-benzopyran-6-yl)-6-methylphenyl]acetic acid], the EC50 was 8 nM.

As to `Cc1ccc(-c2c(C3CC3)ccc(C)c2C(OC(C)(C)C)C(=O)O)cc1` (stereo not shown) [Example 14, 2-(tert-butoxy)-2-(6-cyclopropyl-3,4′-dimethyl-biphenyl-2-yl)-acetic acid], the EC50 turned out to be 51 nM.

Turning to `Cc1ccc(C2CC2)c(-c2ccc(F)cc2)c1C(OC(C)(C)C)C(=O)O` (stereo not shown) [Example 15, 2-(tert-butoxy)-2-(6-cyclopropyl-4′-fluoro-3-methyl-biphenyl-2-yl)-acetic acid], the EC50 came out at 340 nM.

On to `Cc1ccc(C2CC2)c(-c2ccc3c(c2C)CCCO3)c1C(OC(C)(C)C)C(=O)O` (stereo not shown) [Example 16, 2-(tert-butoxy)-2-[3-cyclopropyl-6-methyl-2-(5-methyl-chroman-6-yl)-phenyl]acetic acid], for which the EC50 worked out at 9 nM.

With `Cc1ccc(C2C[C@H]2C2CC2)c(-c2ccc3c(c2)CCCO3)c1C(OC(C)(C)C)C(=O)O` (stereo partly drawn) [Example 17, (trans-3-bicyclopropyl-2-yl-2-chroman-6-yl-6-methyl-phenyl)-tert-butoxy-acetic acid], the concentration giving a half-maximal response (EC50) worked out at 330 nM.

In the case of `Cc1ccc(C2CC2)c(C2=CCC(C)(C)CC2)c1C(OC(C)(C)C)C(=O)O` (stereo not shown) [Example 18, 2-(tert-butoxy)-2-[3-cyclopropyl-2-(4,4-dimethyl-cyclohex-1-enyl)-6-methyl-phenyl]acetic acid], the EC50 amounted to 19 nM.

Turning to `CCOC(C(=O)O)c1c(C)ccc(C2CC2)c1-c1ccc2c(c1)CCCO2` (stereo not shown) [Example 19, 2-(2-chroman-6-yl-3-cyclopropyl-6-methyl-phenyl)-2-ethoxy-acetic acid], the EC50 amounted to 400 nM.

Turning to `Cc1ccc(C2CC2)c(-c2ccc(Cl)cc2)c1C(OC(C)(C)C)C(=O)O` (stereo not shown) [Example 20, 2-(tert-butoxy)-2-(4′-chloro-6-cyclopropyl-3-methyl-biphenyl-2-yl)acetic acid], the EC50 was determined as 54 nM.

On to `Cc1ccc(C2CC2)c(-c2cc(F)c3c(c2C)CCCO3)c1C(OC(C)(C)C)C(=O)O` (stereo not shown) [Example 21, tert-butoxy-[3-cyclopropyl-2-(8-fluoro-5-methyl-chroman-6-yl)-6-methyl-phenyl]-acetic acid], for which the EC50 was 14 nM.

Regarding `Cc1ccc(C2CC2)c(-c2ccc3c(c2)CCCO3)c1C(OC1CC1)C(=O)O` (stereo not shown) [Example 23, 2-[3-cyclopropyl-2-(3,4-dihydro-2H-1-benzopyran-6-yl)-6-methylphenyl]-2-cyclopropoxyacetic acid], the EC50 came out at 100 nM.

Consider `Cc1ccc(C2CC2)c(-c2ccc3c(c2)CCCO3)c1[C@H](OC1CC1)C(=O)O` [Example 24, (S)-2-[3-cyclopropyl-2-(3,4-dihydro-2H-1-benzopyran-6-yl)-6-methylphenyl]-2-cyclopropoxyacetic acid], for which the 50% effective concentration (EC50) is 42 nM.

The same assay, now with this note: Human immunodeficiency virus 1, NL43, MT4, 120 h.
The compound `Cc1ccc(CC2CC2)c(-c2ccc3c(c2)CCCO3)c1C(OC(C)(C)C)C(=O)O` (stereo not shown) [Example 22, tert-Butoxy-(2-chroman-6-yl-3-cyclopropylmethyl-6-methyl-phenyl)-acetic acid] gave an EC50 of 91 nM.
